Measured values published in patent US9649309B2 (priority 2014, dated 2017).
Like-named read-outs stand apart in the source and are kept apart here.

How the values were obtained:
[1] = biological target: T1, Axl (Homo sapiens (Human), UniProt P30530); test: biochemical
[2] = biological target: T2, Tyro3 (Homo sapiens (Human), UniProt Q06418); test: biochemical
[3] = biological target: MerTK (Homo sapiens (Human), UniProt Q12866); conditions: read-out: IC50 MerTK
[4] = biological target: T1, Axl; conditions: read-out: IC50 Axl
[5] = biological target: T2, Tyro3; conditions: read-out: IC50 Tyro3

T1 sequence (P30530 26-894 limits assumed): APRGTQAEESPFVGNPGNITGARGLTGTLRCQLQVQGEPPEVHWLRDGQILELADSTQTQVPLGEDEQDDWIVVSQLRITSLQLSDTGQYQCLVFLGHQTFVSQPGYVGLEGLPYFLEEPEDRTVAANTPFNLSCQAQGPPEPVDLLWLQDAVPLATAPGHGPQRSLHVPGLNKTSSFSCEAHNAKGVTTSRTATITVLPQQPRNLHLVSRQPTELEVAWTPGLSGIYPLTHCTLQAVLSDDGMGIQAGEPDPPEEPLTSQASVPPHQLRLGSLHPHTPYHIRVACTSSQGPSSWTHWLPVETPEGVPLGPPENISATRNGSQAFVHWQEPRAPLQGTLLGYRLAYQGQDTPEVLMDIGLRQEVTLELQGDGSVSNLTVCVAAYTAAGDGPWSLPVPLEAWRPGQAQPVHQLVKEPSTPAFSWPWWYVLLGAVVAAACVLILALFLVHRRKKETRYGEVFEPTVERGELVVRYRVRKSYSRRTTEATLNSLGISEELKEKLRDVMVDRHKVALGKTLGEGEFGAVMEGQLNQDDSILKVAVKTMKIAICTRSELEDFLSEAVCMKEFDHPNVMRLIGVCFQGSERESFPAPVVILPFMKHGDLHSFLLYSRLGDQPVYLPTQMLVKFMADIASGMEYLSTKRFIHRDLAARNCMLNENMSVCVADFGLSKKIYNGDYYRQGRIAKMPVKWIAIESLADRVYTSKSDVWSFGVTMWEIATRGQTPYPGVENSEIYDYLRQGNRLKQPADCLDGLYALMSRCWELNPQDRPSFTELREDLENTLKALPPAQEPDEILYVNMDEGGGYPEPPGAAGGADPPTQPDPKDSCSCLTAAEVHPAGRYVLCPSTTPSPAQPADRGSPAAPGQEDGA
T2 sequence (Q06418 41-890 limits assumed): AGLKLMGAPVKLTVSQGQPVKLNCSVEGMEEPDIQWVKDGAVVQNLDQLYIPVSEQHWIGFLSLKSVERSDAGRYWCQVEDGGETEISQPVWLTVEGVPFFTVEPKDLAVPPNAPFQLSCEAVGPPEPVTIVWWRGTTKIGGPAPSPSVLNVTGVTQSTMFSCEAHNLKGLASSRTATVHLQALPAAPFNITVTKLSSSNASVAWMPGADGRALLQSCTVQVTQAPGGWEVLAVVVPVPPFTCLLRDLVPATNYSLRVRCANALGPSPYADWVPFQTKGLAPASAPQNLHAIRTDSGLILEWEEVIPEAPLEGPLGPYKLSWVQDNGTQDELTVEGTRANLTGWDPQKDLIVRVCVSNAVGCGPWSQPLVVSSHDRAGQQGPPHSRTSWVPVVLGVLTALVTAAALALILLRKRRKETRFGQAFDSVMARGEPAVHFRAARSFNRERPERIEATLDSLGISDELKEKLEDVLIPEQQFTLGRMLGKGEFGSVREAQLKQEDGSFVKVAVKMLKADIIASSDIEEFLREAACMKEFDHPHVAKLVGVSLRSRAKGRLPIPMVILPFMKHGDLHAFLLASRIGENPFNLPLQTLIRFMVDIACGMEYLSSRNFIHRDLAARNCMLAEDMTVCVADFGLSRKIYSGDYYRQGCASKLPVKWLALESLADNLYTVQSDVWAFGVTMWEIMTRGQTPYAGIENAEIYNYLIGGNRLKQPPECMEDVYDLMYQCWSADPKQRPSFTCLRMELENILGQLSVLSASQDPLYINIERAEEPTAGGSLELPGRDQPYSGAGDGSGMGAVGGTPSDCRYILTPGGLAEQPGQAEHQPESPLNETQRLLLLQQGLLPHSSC
Chain of MerTK (Q12866 21-999 limits assumed): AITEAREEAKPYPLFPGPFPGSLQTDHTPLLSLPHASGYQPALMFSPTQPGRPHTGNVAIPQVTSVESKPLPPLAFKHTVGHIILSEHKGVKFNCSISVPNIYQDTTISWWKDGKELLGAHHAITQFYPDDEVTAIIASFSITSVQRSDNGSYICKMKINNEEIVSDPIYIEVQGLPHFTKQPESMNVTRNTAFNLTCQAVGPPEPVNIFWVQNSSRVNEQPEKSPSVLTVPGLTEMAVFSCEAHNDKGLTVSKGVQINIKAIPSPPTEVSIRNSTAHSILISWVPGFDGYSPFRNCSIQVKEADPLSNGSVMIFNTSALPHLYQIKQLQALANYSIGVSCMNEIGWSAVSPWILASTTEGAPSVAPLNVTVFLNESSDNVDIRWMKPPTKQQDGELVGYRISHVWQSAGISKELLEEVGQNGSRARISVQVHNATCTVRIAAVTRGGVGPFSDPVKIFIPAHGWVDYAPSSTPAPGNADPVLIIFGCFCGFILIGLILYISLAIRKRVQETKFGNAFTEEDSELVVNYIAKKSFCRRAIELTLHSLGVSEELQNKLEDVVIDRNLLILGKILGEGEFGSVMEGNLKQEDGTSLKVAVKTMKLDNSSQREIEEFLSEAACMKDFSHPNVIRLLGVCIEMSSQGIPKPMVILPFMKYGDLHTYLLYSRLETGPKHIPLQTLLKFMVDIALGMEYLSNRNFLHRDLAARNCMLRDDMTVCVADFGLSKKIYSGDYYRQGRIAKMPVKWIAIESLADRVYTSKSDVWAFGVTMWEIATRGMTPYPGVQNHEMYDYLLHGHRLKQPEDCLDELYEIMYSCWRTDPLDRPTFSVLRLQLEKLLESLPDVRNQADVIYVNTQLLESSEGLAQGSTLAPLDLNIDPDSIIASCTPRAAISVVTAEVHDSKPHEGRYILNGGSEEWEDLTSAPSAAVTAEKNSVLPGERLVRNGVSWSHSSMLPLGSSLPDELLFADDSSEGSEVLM

Row | Structure (SMILES) | IC50 [1] [nM] | IC50 [2] [nM] | IC50 [3] [nM] | IC50 [4] [nM] | IC50 [5] [nM]
1 | CCCCNc1ncc(C(=O)NCCCN2CCOCC2)c(N[C@H]2CC[C@H](O)CC2)n1 [UNC1839A] | 951 | 1070 | – | – | –
2 | CCCCNc1ncc(C(=O)NCCCCO)c(N[C@H]2CC[C@H](O)CC2)n1 [UNC1844A] | 1180 | 1080 | – | – | –
3 | CCCCNc1ncc(C(=O)Nc2ccc(CCO)cc2)c(N[C@H]2CC[C@H](O)CC2)n1 [UNC1846A] | 1190 | 1070 | – | – | –
4 | CCCCNc1ncc(C(=O)NCc2ccncc2)c(N[C@H]2CC[C@H](O)CC2)n1 [UNC1849A] | 1260 | 1740 | – | – | –
5 | CCCCNc1ncc(C(=O)NCCc2ccc(F)cc2)c(N[C@H]2CC[C@H](O)CC2)n1 [UNC1850A] | 1640 | 1210 | – | – | –
6 | CCCCNc1ncc(-c2ccc(CN3CCCN(C)CC3)cn2)c(N[C@H]2CC[C@H](O)CC2)n1 [UNC2405A] | 183 | 98 | – | – | –
7 | CCCCNc1ncc(-c2ccc(CN3CCCC3)cn2)c(N[C@H]2CC[C@H](O)CC2)n1 [UNC2490A] | 36 | 18 | – | – | –
8 | CCCCNc1ncc(-c2ccc(CNCC3CC3)cn2)c(N[C@H]2CC[C@H](O)CC2)n1 [UNC2547A] | 30 | 11 | – | – | –
9 | CCCCNc1ncc(-c2ccc(CNCc3ccncc3)cn2)c(N[C@H]2CC[C@H](O)CC2)n1 [UNC2571A] | 44 | 18 | – | – | –
10 | CCCCNc1ncc(-c2ccc(CNCc3ccccc3)cn2)c(N[C@H]2CC[C@H](O)CC2)n1 [UNC2572A] | 136 | 43 | – | – | –
11 | CCCCNc1ncc(-c2cccc(CN3CCN(C)CC3)n2)c(N[C@H]2CC[C@H](O)CC2)n1 [UNC2622A] | 296 | 162 | – | – | –
12 | CCCCNc1ncc(C(=O)NC2CC(C)(C)N(C)C(C)(C)C2)c(N[C@H]2CC[C@H](O)CC2)n1 [UNC2695A] | 233 | 76 | – | – | –
13 | CCCCNc1ncc(C(=O)NC2CCN(C3CCN(C)CC3)CC2)c(N[C@H]2CC[C@H](O)CC2)n1 [UNC2698A] | 175 | 43 | – | – | –
14 | CCCCNc1ncc(C(=O)NC2CCCCCC2)c(N[C@H]2CC[C@H](O)CC2)n1 [UNC2734A] | 665 | 505 | – | – | –
15 | CCCCNc1ncc(C(=O)NCc2ccc(CN3CCOCC3)cc2)c(N[C@H]2CC[C@H](O)CC2)n1 [UNC2735A] | 189 | 145 | – | – | –
16 | CCCCNc1ncc(C(=O)NC2CCC2)c(N[C@H]2CC[C@H](O)CC2)n1 [UNC2737A] | 491 | 443 | – | – | –
17 | CCCCNc1ncc(C(=O)NCC2CCN(C)CC2)c(N[C@H]2CC[C@H](O)CC2)n1 [UNC2742A] | 534 | 247 | – | – | –
18 | CCCCNc1ncc(C(=O)NCC2CCN(C3CCCC3)CC2)c(N[C@H]2CC[C@H](O)CC2)n1 [UNC2743A] | 166 | 84 | – | – | –
19 | CCCCNc1ncc(-c2ccc(CCCN3CCN(C)CC3)cn2)c(N[C@H]2CC[C@H](O)CC2)n1 [UNC2792A] | 191 | 75 | – | – | –
20 | CCCCNc1ncc(-c2ccc(C#CCN3CCN(C)CC3)cn2)c(N[C@H]2CC[C@H](O)CC2)n1 [UNC2793A] | 153 | 60 | – | – | –
21 | CCCCNc1ncc(-c2cnccn2)c(N[C@H]2CC[C@H](O)CC2)n1 [UNC2794A] | 604 | 158 | – | – | –
22 | CCCCNc1ncc(-c2ccc(CCN3CCN(C)CC3)cn2)c(N[C@H]2CC[C@H](O)CC2)n1 [UNC2795A] | 211 | 82 | – | – | –

Row | Structure (SMILES) | IC50 [1] [nM] | IC50 [2] [nM] | IC50 [3] [nM] | IC50 [4] [nM] | IC50 [5] [nM]
23 | CCCCNc1ncc(-c2ccc3ccccc3n2)c(N[C@H]2CC[C@H](O)CC2)n1 [UNC2860A] | 30000 | 755 | – | – | –
24 | CCCCNc1ncc(-c2ncc(COCc3ccccc3)s2)c(N[C@H]2CC[C@H](O)CC2)n1 [UNC2863A] | 2610 | 1220 | – | – | –
25 | CCCCNc1ncc(-c2ccc(CN3CCOCC3)o2)c(N[C@H]2CC[C@H](O)CC2)n1 [UNC2898A] | 2550 | 374 | – | – | –
26 | CCCCNc1ncc(-c2ccc(CN3CC(F)(F)C3)o2)c(N[C@H]2CC[C@H](O)CC2)n1 [UNC2900A] | 1850 | 370 | – | – | –
27 | CCCCNc1ncc(-c2ccc(C(=O)N(C)C3CCN(C)CC3)cn2)c(N[C@H]2CC[C@H](O)CC2)n1 [UNC2915A] | 49 | 6.5 | – | – | –
28 | CCCCNc1ncc(-c2ccc(F)cn2)c(NC[C@H]2CC[C@H](N)CC2)n1 [UNC3021A] | 621 | 114 | – | – | –
29 | CCCCNc1ncc(-c2ccc(C(=O)NC3CCN(C)CC3)o2)c(N[C@H]2CC[C@H](O)CC2)n1 [UNC3181A] | 1030 | 507 | – | – | –
30 | CCCCNc1ncc(-c2cc(NC(C)C)ncn2)c(N[C@H]2CC[C@H](O)CC2)n1 [UNC3192A] | 86 | 77 | – | – | –
31 | CCCCNc1ncc(-c2cc(NC3CC3)ncn2)c(N[C@H]2CC[C@H](O)CC2)n1 [UNC3193A] | 169 | 115 | – | – | –
32 | CCCCNc1ncc(-c2cc(NC3CCCCC3)ncn2)c(N[C@H]2CC[C@H](O)CC2)n1 [UNC3194A] | 260 | 239 | – | – | –
33 | CCCCNc1ncc(-c2cc(N3CCCC3)ncn2)c(N[C@H]2CC[C@H](O)CC2)n1 [UNC3195A] | 188 | 230 | – | – | –
34 | CCCCNc1ncc(-c2cc(N3CCOCC3)ncn2)c(N[C@H]2CC[C@H](O)CC2)n1 [UNC3196A] | 2130 | 1000 | – | – | –
35 | CCCCNc1ncc(-c2cc(N3CCN(C)CC3)ncn2)c(N[C@H]2CC[C@H](O)CC2)n1 [UNC3197A] | 1680 | 1170 | – | – | –
36 | CCCCNc1ncc(-c2cc(N3CCCCC3)ncn2)c(N[C@H]2CC[C@H](O)CC2)n1 [UNC3198A] | 6070 | 3740 | – | – | –
37 | CCCCNc1ncc(-c2cc(NC3CCCC3)ncn2)c(N[C@H]2CC[C@H](O)CC2)n1 [UNC3199A] | 1360 | 847 | – | – | –
38 | CCCCNc1ncc(-c2cc(NC(C)(C)C)ncn2)c(N[C@H]2CC[C@H](O)CC2)n1 [UNC3200A] | 480 | 259 | – | – | –
39 | CCCCCNc1cc(-c2cnc(NCCCC)nc2N[C@H]2CC[C@H](O)CC2)ncn1 [UNC3201A] | 112 | 195 | – | – | –
40 | CCCCNc1ncc(-c2ncc(CN3CCCC3)s2)c(N[C@H]2CC[C@H](O)CC2)n1 [UNC4223A] | 29 | 14 | – | – | –
41 | CCCCNc1ncc(-c2ccc(CC3CCN(C)CC3)cn2)c(N[C@H]2CC[C@H](O)CC2)n1 [UNC4337A, Trans-4-((2-(butylamino)-5-(5-((1-methylpiperidin-4-yl)methyl)pyridin-2-yl)pyrimidin-4-yl)amino)cyclohexan-1-ol] | – | – | 4.4 | 74 | 66
42 | CCCCNc1ncc(-c2ccc(C=C3CCN(C(C)C)CC3)cn2)c(N[C@H]2CC[C@H](O)CC2)n1 [UNC4340A] | – | – | 1.1 | 9.2 | 8.5
43 | CCCCNc1ncc(-c2ccc(CC3CCNC3)cn2)c(N[C@H]2CC[C@H](O)CC2)n1 (stereo partly drawn) [UNC4386A, trans-4-((2-(butylamino)-5-(5-(pyrrolidin-3-ylmethyl)pyridin-2-yl)pyrimidin-4-yl)amino)cyclohexan-1-ol] | – | – | – | 53 | 53
44 | CCCCNc1ncc(-c2ccc(C3=CCC(CN(C)C)CC3)cn2)c(N[C@H]2CC[C@H](O)CC2)n1 (stereo partly drawn) [UNC4387A] | – | – | – | 320 | 488
